# “And” between values parts separate entries of the source, which are not always exact repeats. Equal entries are not always repeated. “Also recorded” adds a separate entry of the source. Marks after values point to notes of the source that are not given here.
# Key:
# experimental PVR = tested on: experimental PVR; parameters: method as in PMID 10359331; conditions: intravitreal injection; cited from earlier work
# ARPE-19 cells = assay: Cell proliferation assay (ARPE-19/WST-1); assay type: cell-based; conditions: Homo sapiens, 120 h, 5 days, WST-1, read-out: 50% cytotoxicity concentration (CC50)
# Method: (§1) Human retinal pigment epithelium (ARPE-19) cells were obtained from the American Type Culture Collection (ATCC; Manassas, VA). A rat Müller cell line, rMC-1, was provided by Dr. Gabe Silva at UC San Diego (originally obtained from Dr. Vijay Sarthy, Northwestern University, Chicago, IL). ARPE-19 cells were cultured in Dulbecco’s modified Eagle medium (DMEM)/F12 and rMC-1 in DMEM. DMEM/F12 medium and DMEM were maintained at 37 °C in a humidified chamber of 5% CO2. All culture media were supplemented with 10% fetal bovine serum, 100 U/ml penicillin, and 100 µg/ml streptomycin. The cell lines were chosen due to their dominant presence in the pathology of proliferative vitreoretinopathy.
# ARPE-19 cells were plated in 96-well plates at […] per well. Serial dilutions of the compounds were added to the wells in a total volume of 100 µl. The plates were maintained in a 37 °C incubator. After 5 days, 10 µl of a solution of WST-1 (Roche Diagnostics, Indianapolis, IN) was added to each well, and the plates returned to the incubator for 0.5 h, after which the OD450 of each well was measured. Percent inhibition data were obtained from at least three experiments with at least six wells at each concentration in separate 96-well plates. […] The results were expressed as the percentage of the optical density of treated cells relative to that of untreated controls.
# rMC-1 cells = assay: Cell proliferation assay (rMC-1/XTT); assay type: cell-based; conditions: Rattus norvegicus, 120 h, 5 days, XTT, read-out: 50% cytotoxicity concentration (CC50)
# Method: as §1
# rMC-1 cells were plated in 96-well plates at […] per well. Serial dilutions of the compounds were added to the wells in a total volume of 100 µl. The plates were maintained in a 37 °C incubator. After 5 days, 50 µl of a solution of XTT (Roche Molecular Biochemicals, Indianapolis, IN) was added to each well, and the plates returned to the incubator for 30 min, after which the […] (OD) of each well was measured at a wavelength of 450 nanometers. Percent inhibition was determined by comparing the OD of wells containing compound to the OD of control wells.
# [1] = Simulated intravitreal clearance kinetics (dissolution chamber); assay type: in vitro ADME
# Method: Dissolution starting from an intravitreal drug depot was simulated using a custom chamber and a syringe pump. The drug powder (600 µg) was weighed into the chamber, which had 1.5 ml of effective circulation volume to mimic the rabbit vitreous. The chamber was filled with 1.5 ml of Hank’s Balanced Salt Solution (HBSS). The chamber was then connected by tubing to a NE-1000 syringe pump (New Era Pump Systems, Farmingdale, NY) on one end and open tubing on the other end so that the solution could be collected into a vial (Figure 1). The syringe pump was set to a flow rate of 2 µl/min [12], and the syringe filled with HBSS. The entire setup was maintained at 37 °C and pumped continuously. This dissolution chamber mimics the rabbit vitreous fluid turnover only. […] At the same time every day, the vial was changed and the contents collected and stored at −80 °C until liquid chromatography/mass spectrometry (LC/MS) was performed.
# Figure 1 The dissolution chamber is made of poly methyl methacrylate. Inlet tubing connects from a syringe pump to the upper part of the chamber, and the outlet tubing leaves from the lower part of the chamber to the sample collector. In the center of the dissolution chamber, a titanium mesh circle is installed to prevent the large drug particles reaching the lower chamber to possibly clog the outgoing tubing. The mesh contains […].
# rat eyes = assay: Toxicity study of HDP-P-Ara-C in rat eyes (intravitreal injection); assay type: in vivo
# Method: Twelve Brown Norway rats were used to evaluate the effect of intravitreal HDP-P-Ara-C versus control injection. […] Only one eye of each rat was injected with the drug, and the fellow eye was injected with saline as control. Electroretinograms (ERGs) were obtained before drug injection and 1 day before scheduled sacrifice. Following injection, toxicity and safety were evaluated with indirect ophthalmoscopy, biomicroscopy, and fundus photography. At week 2 following drug injections, all of the rats were euthanized with intraperitoneal injection of ketamine (100 mg/kg) and xylazine (10 mg/kg) followed by intraperitoneal injection of 120 mg/kg sodium pentobarbital. Six eyes were used for pathologic evaluation and six eyes used for evaluation of vitreous drug level. Vitreous drug levels were determined at the end of the experiment using high-performance liquid chromatography (HPLC).
# (§2) Intraocular pressure (IOP) measurements and ERG recordings were repeated measurement data. Therefore, generalized estimating equations were used to compare the mean IOP and ERG amplitudes between each treatment group and the control group. All analyses were performed with SAS 9.2 software (SAS Institute Inc., Cary, NC), and the difference was considered to be significant when the p value was smaller than 0.05.
# rabbit eyes = assay: Toxicity study of HDP-cP-Ara-C in rabbit eyes (intravitreal injection); assay type: in vivo; conditions: for Dark A amp (dark adapted ERG a-wave amplitude) / Dark B amp / Flicker amp / Light A amp / Light B amp: OD, n=4, in µV (unit assumed)
# Description: Sixteen New Zealand Red rabbits were used for this study. Only one eye of each animal was used for the drug testing, and the fellow eye was used as a control by injection of the diluent. […] After the intravitreal injection, the rabbits were examined at week 1, 2, 4, 8, and 12 and then once a month for 7 months. The eyes were monitored with slit-lamp exam, tonometry, indirect ophthalmoscope, and fundus camera. The drug depot size was estimated and recorded using the optic disc area and the drug depot contour in the vitreous. The number of disc areas for estimating the two dimensions of the drug depot and the contour (ball=3, patch=2, filaments and dots=1) provides an estimate of the density of the drug depot. ERGs were recorded from all animals at week 2, week 8, and immediately before the animals were euthanized by deeply anesthetizing the animals with a combined ketamine (24 mg/kg) and xylazine (6 mg/kg) intramuscular injection followed by an intravenous injection of 0.3 ml/kg B-euthanasia (Schering-Plough Animal Health, Kenilworth, NJ).
# as §2
# [2] = Water solubility (observation); assay type: physicochemical
# [3] = parameters: method as in PMID 1917392; conditions: unmodified nucleoside; cited from earlier work
# herpes simplex virus = tested on: herpes simplex virus; parameters: method as in PMID 15505067; conditions: single intravitreal injection; cited from earlier work
smiles,measurement,setting,value
"CCCCCCCCCCCCCCCCOCCCOP1(=O)OCC2OC(n3cc(F)c(=O)[nH]c3=O)CC2O1 (stereo not shown) [hexadecyloxypropyl 5-fluoro-2'-deoxyuridine cyclic 3′,5′-monophosphate]",effect on experimental PVR,experimental PVR,inhibited experimental PVR
"CCCCCCCCCCCCCCCCOCCCOP(=O)(O)OC[C@H]1O[C@@H](n2ccc(N)nc2=O)[C@@H](O)[C@@H]1O [HDP-P-Ara-C, hexadecyloxypropyl cytarabine 5′-monophosphate]",CC50,ARPE-19 cells,52 ± 2.6 µM
same,CC50,rMC-1 cells,32 ± 2.2 µM
same,drug in eluate samples,[1]; day 7 and after,no drug was detected
same,drug cleared from the chamber,"[1]; within 3 days, flow rate 2 µl/min",99%
same,depot formation in the vitreous,rat eyes; after intravitreal injection,did not form a depot
same,ocular toxicity,"rat eyes; intravitreal 2-228 µg/eye, 2 weeks",no ocular toxicity was found
same,ERG and pathology,"rat eyes; intravitreal, 2 weeks",normal retinal physiology and histology
same,vitreous drug level (HPLC),"rat eyes; week 2 after intravitreal injection, including highest dose 228 µg/eye",not detectable; also recorded: no drug was detectable; also recorded: no HDP-P-Ara-C was detected
"CCCCCCCCCCCCCCCCOCCCOP1(=O)OC[C@H]2O[C@@H](n3ccc(N)nc3=O)[C@@H](O)[C@@H]2O1 (stereo partly shown) [HDP-cP-Ara-C, hexadecyloxypropyl cytarabine 3′,5′-cyclic monophosphate]",CC50,ARPE-19 cells,50 µM
same,CC50,rMC-1 cells,25 µM
same,drug concentration in the eluate (low-level sustained release),[1]; day 25 to day 36,about 16 ng/mL
same,day of peak release,[1]; dissolution chamber eluate,9 days and ~10 days
same,hydrolysis to HDP-P-Ara-C during the dissolution experiment,"[1]; eluate analysis, medium printed as PBS, HBSS",slow hydrolysis
same,time still detectable in dissolution chamber eluate,"[1]; end of experiment, flow rate 2 µL/min",≥ 36 days
same,TUNEL staining / retinal structure,"rabbit eyes; 250 µg intravitreal, paraffin sections vs fellow eye",No structural abnormality or apoptosis; also recorded: normal structures and negative apoptosis staining
same,ERG examination,rabbit eyes; 250 µg or lower doses,did not reveal drug toxicity
same,"eyes with direct contact of drug depot with optic nerve or inferior retina (gliosis, discoloration)","rabbit eyes; 800 µg, 7-month study",two eyes out of the four eyes
same,dark adapted a-wave and flicker ERG amplitude vs fellow control eyes,rabbit eyes; 800 µg/eye,significantly lower
same,"intraocular pressure, injected eyes vs fellow eyes",rabbit eyes; 25-800 µg/eye,no significant difference
same,estimated time drug depot would be visible,"rabbit eyes; 80 or 250 µg/eye, estimation of vitreal clearance",3 months
same,time drug depots visible,rabbit eyes; all doses (25-800 µg/eye),≥ 2 months
same,Dark A amp (dark adapted ERG a-wave amplitude),rabbit eyes; high dose 250 µg/eye,−15.6
same,Dark B amp,rabbit eyes; high dose 250 µg/eye,83.19
same,Flicker amp,rabbit eyes; high dose 250 µg/eye,25.07
same,Light A amp,rabbit eyes; high dose 250 µg/eye,−3.57
same,Light B amp,rabbit eyes; high dose 250 µg/eye,49.68
same,Dark A amp (dark adapted ERG a-wave amplitude),rabbit eyes; highest dose 800 µg/eye,−11.69
same,Dark B amp,rabbit eyes; highest dose 800 µg/eye,95.35
same,Flicker amp,rabbit eyes; highest dose 800 µg/eye,21.09
same,Light A amp,rabbit eyes; highest dose 800 µg/eye,−5.57
same,Light B amp,rabbit eyes; highest dose 800 µg/eye,48.06
same,time drug depot still visible,rabbit eyes; highest dose (800 µg/eye),≥ 7 months
same,well tolerated dose,rabbit eyes; intravitreal,up to 250 µg/eye
same,Dark A amp (dark adapted ERG a-wave amplitude),rabbit eyes; low dose 25 µg/eye,−14.44
same,Dark B amp,rabbit eyes; low dose 25 µg/eye,88.14
same,Flicker amp,rabbit eyes; low dose 25 µg/eye,22.58
same,Light A amp,rabbit eyes; low dose 25 µg/eye,−4.49
same,Light B amp,rabbit eyes; low dose 25 µg/eye,47.93
same,Dark B amp,rabbit eyes; moderate dose 80 µg/eye,79.31
same,Flicker amp,rabbit eyes; moderate dose 80 µg/eye,23.51
same,Light A amp,rabbit eyes; moderate dose 80 µg/eye,−5.64
same,Light B amp,rabbit eyes; moderate dose 80 µg/eye,42.83
same,AC cell (eyes affected/eyes),"rabbit eyes; week 1, 25 µg",0/4
same,Fundus abnormality (eyes affected/eyes),"rabbit eyes; week 1, 25 µg",0/4
same,Vit. Clarity (eyes affected/eyes),"rabbit eyes; week 1, 25 µg, haze from vitreous hemorrhage during injection",1/4#
same,AC cell (eyes affected/eyes),"rabbit eyes; week 1, 80 µg",0/4
same,Fundus abnormality (eyes affected/eyes),"rabbit eyes; week 1, 80 µg",0/4
same,Vit. Clarity (eyes affected/eyes),"rabbit eyes; week 1, 80 µg",0/4
same,AC cell (eyes affected/eyes),"rabbit eyes; week 1, 250 µg",0/4
same,Fundus abnormality (eyes affected/eyes),"rabbit eyes; week 1, 250 µg",0/4
same,Vit. Clarity (eyes affected/eyes),"rabbit eyes; week 1, 250 µg",0/4
same,AC cell (eyes affected/eyes),"rabbit eyes; week 1, 800 µg",0/4
same,Fundus abnormality (eyes affected/eyes),"rabbit eyes; week 1, 800 µg",0/4
same,Vit. Clarity (eyes affected/eyes),"rabbit eyes; week 1, 800 µg",0/4
same,AC cell (eyes affected/eyes),"rabbit eyes; week 8, 25 µg",0/4
same,Fundus abnormality (eyes affected/eyes),"rabbit eyes; week 8, 25 µg",0/4
same,Vit. Clarity (eyes affected/eyes),"rabbit eyes; week 8, 25 µg",0/4
same,AC cell (eyes affected/eyes),"rabbit eyes; week 8, 80 µg",0/4
same,Fundus abnormality (eyes affected/eyes),"rabbit eyes; week 8, 80 µg",0/4
same,Vit. Clarity (eyes affected/eyes),"rabbit eyes; week 8, 80 µg",0/4
same,AC cell (eyes affected/eyes),"rabbit eyes; week 8, 250 µg",0/4
same,Fundus abnormality (eyes affected/eyes),"rabbit eyes; week 8, 250 µg",0/4
same,Vit. Clarity (eyes affected/eyes),"rabbit eyes; week 8, 250 µg",0/4
same,AC cell (eyes affected/eyes),"rabbit eyes; week 28, 800 µg",0/4
same,Vit. Clarity (eyes affected/eyes),"rabbit eyes; week 28, 800 µg",0/4
same,Fundus abnormality (eyes affected/eyes),"rabbit eyes; week 28, 800 µg, direct contact of depot with medullary ray or inferior retina",2/4*
same,water solubility,[2],limited aqueous solubility; also recorded: minimally water soluble; also recorded: sparingly water soluble
"Nc1ccn([C@@H]2O[C@H](CO)[C@@H](O)[C@@H]2O)c(=O)n1 [cytarabine, 1-β-D-arabinofuranosylcytosine]",intravitreal half-life,[3],≤ 12 h
CCCCCCCCCCCCCCCCOCCCOP1(=O)CO[C@@H](Cn2ccc(N)nc2=O)CO1 (stereo partly shown) [hexadecyloxypropyl cyclic cidofovir],duration of herpes simplex virus suppression,herpes simplex virus,up to 4 months

# — PMC3413433, “A novel cytarabine crystalline lipid prodrug: Hexadecyloxypropyl cytarabine 3′,5′-cyclic monophosphate for proliferative vitreoretinopathy” (Molecular Vision, 2012)
